From patent publication US9955691B2, “Macrocyclic picolinamides as fungicides” (DOW AGROSCIENCES LLC, priority 2014, dated 2018) come the findings set out here.

Read-outs that look alike come from different tables or passages of the source.

One assay has as its system Puccinia triticina. In words: Fungicidal activity: Wheat Brown Rust (PUCCRT). It counts as in vivo. As to conditions: for pest or weed control at 100 µg/mL: High Volume (100 ppm); for pest or weed control at 121.5 g/ha: Low Volume (121.5 g/H). Here is the method: (§1) Technical grades of materials were dissolved in acetone, which were then mixed with nine volumes of water containing 110 ppm Triton X-100. The fungicide solutions were applied onto wheat seedlings using an automated booth sprayer to run-off. All sprayed plants were allowed to air dry prior to further handling. All fungicides were evaluated using the aforementioned method for their activity vs. all target diseases, unless stated otherwise. Wheat leaf blotch and brown rust activity were also evaluated using track spray applications, in which case the fungicides were formulated as EC formulations, containing 0.1% Trycol 5941 in the spray solutions. Wheat plants (variety Yuma) were grown from seed in a greenhouse in 50% mineral soil/50% soil-less Metro mix until the first leaf was fully emerged, with 7-10 seedlings per pot. These plants were inoculated with an aqueous spore suspension of Septoria tritici either prior to or after fungicide treatments. After inoculation the plants were kept in 100% relative humidity (one day in a dark dew chamber followed by two to three days in a lighted dew chamber at 20° C.) to permit spores to germinate and infect the leaf. The plants were then transferred to a greenhouse set at 20° C. for disease to develop. When disease symptoms were fully expressed on the 1st leaves of untreated plants, infection levels were assessed on a scale of 0 to 100 percent disease severity. Percent disease control was calculated using the ratio of disease severity on treated plants relative to untreated plants. Evaluation of Fungicidal Activity: Wheat Brown Rust (Puccinia triticina; Synonym: Puccinia recondite f. Sp. Tritici; Bayer Code PUCCRT) Wheat plants (variety Yuma) were grown from seed in a greenhouse in 50% mineral soil/50% soil-less Metro mix until the first leaf was fully emerged, with 7-10 seedlings per pot. These plants were inoculated with an aqueous spore suspension of Puccinia triticina either prior to or after fungicide treatments. After inoculation the plants were kept in a dark dew room at 22° C. with 100% relative humidity overnight to permit spores to germinate and infect the leaf. The plants were then transferred to a greenhouse set at 24° C. for disease to develop. Fungicide formulation, application and disease assessment followed the procedures as described in the Example A.

The subject of assay [1] is Mycosphaerella graminicola; Anamorph: Septoria tritici. In words: Fungicidal activity: Leaf Blotch of Wheat (SEPTTR). The assay is classed as in vivo. As to conditions: Zymoseptoria tritici, wheat leaf blotch; for pest or weed control at 100 µg/mL: High Volume (100 ppm); for pest or weed control at 121.5 g/ha: Low Volume (121.5 g/H). Here is the method:
as §1, with “Evaluation of Fungicidal Activity: Leaf Blotch of Wheat (Mycosphaerella graminicola; Anamorph: Septoria tritici; Bayer Code […]) Technical” for “Technical”, “plants.” for “plants. Evaluation of Fungicidal Activity: Wheat Brown Rust (Puccinia triticina; Synonym: Puccinia recondite f. Sp. Tritici; Bayer Code PUCCRT) Wheat plants (variety Yuma) were grown from seed in a greenhouse in 50% mineral soil/50% soil-less Metro mix until the first leaf was fully emerged, with 7-10 seedlings per pot. These plants were inoculated with an aqueous spore suspension of Puccinia triticina either prior to or after fungicide treatments. After inoculation the plants were kept in a dark dew room at 22° C. with 100% relative humidity overnight to permit spores to germinate and infect the leaf. The plants were then transferred to a greenhouse set at 24° C. for disease to develop. Fungicide formulation, application and disease assessment followed the procedures as described in the Example A.”

Where [2] appears, read: 24 h, 1 Day Protectant, read-out: PUCCRT 1 DP disease control.
[3] abbreviates: 72 h, 3 Day Curative, read-out: PUCCRT 3 DC disease control.
The mark [4] stands for this setting: 24 h, 1 Day Protectant, read-out: SEPTTR 1 DP disease control.
The mark [5] stands for this setting: 72 h, 3 Day Curative, read-out: SEPTTR 3 DC disease control.

Turning to `COc1ccnc(C(=O)N[C@H]2COC[C@H](CCC(C)C)[C@@H](Cc3ccccc3)[C@H](C)OC2=O)c1O` [compound 133], the pest or weed control at 100 µg/mL (with Puccinia triticina (setting [2]); in the assay with Puccinia triticina (setting [3]); in assay [1] (setting [4]); in assay [1] (setting [5])) was over 70% in each case.
Regarding `COc1ccnc(C(=O)N[C@H]2COC[C@H](Cc3ccccc3)[C@@H](Cc3ccc(F)cc3)[C@H](C)OC2=O)c1OC(C)=O` [compound 60], the pest or weed control at 121.5 g/ha in the assay on Puccinia triticina (setting [2]) is under 70%; with Puccinia triticina (setting [3]), under 70%; in assay [1] (setting [4]), over 70%; in assay [1] (setting [5]) it was under 70%.
In the case of `COc1ccnc(C(=O)N[C@H]2COC[C@H](CCC(C)C)[C@@H](CCc3ccccc3)[C@H](C)OC2=O)c1O` [compound 129], the pest or weed control at 100 µg/mL (in the assay with Puccinia triticina (setting [2]); in the assay on Puccinia triticina (setting [3]); in assay [1] (setting [4]); in assay [1] (setting [5])) was over 70% throughout.
As to `COc1ccnc(C(=O)N[C@H]2COC[C@H](CC3CC3)[C@@H](c3ccccc3)[C@H](C)OC2=O)c1OCOC(C)=O` [compound 101], the pest or weed control at 121.5 g/ha (in the assay on Puccinia triticina (setting [2]); in the assay on Puccinia triticina (setting [3]); in assay [1] (setting [4]); in assay [1] (setting [5])) was over 70% each time.
Consider `COc1ccnc(C(=O)N[C@H]2COC[C@H](CCC(C)C)[C@@H](CCC(C)C)[C@H](C)OC2=O)c1O` [compound 117], for which the pest or weed control at 100 µg/mL is over 70% in the assay with Puccinia triticina (setting [2]), over 70% with Puccinia triticina (setting [3]), over 70% in assay [1] (setting [4]) and under 70% in assay [1] (setting [5]).
With `CCOCC(=O)OCOc1c(OC)ccnc1C(=O)N[C@H]1COC[C@H](Cc2ccccc2)[C@@H](C2CCCC2)[C@H](C)OC1=O` [compound 40], the pest or weed control at 121.5 g/ha (in the assay with Puccinia triticina (setting [2]); in the assay with Puccinia triticina (setting [3]); in assay [1] (setting [4]); in assay [1] (setting [5])) was over 70% throughout.
Consider `COc1ccnc(C(=O)N[C@H]2COC[C@H](Cc3ccc(Cl)cc3)[C@@H](CC(C)C)[C@H](C)OC2=O)c1OC(C)=O` [compound 75], for which the pest or weed control at 121.5 g/ha in the assay with Puccinia triticina (setting [2]) was over 70%; in the assay on Puccinia triticina (setting [3]), under 70%; in assay [1] (setting [4]), over 70%; in assay [1] (setting [5]), over 70%.
Take `CCC[C@H]1COC[C@H](NC(=O)c2nccc(OC)c2OCOC(C)=O)C(=O)O[C@@H](C)[C@@H]1Cc1ccccc1` [compound 23]: the pest or weed control at 121.5 g/ha (in the assay with Puccinia triticina (setting [2]); in the assay on Puccinia triticina (setting [3]); in assay [1] (setting [4]); in assay [1] (setting [5])) was over 70% throughout.
With `COc1ccnc(C(=O)N[C@H]2COC[C@H](CCCc3ccccc3)[C@@H](Cc3ccc(OC(F)(F)F)cc3)[C@H](C)OC2=O)c1OCOC(C)=O` [compound 76], the pest or weed control at 121.5 g/ha was over 70% in the assay with Puccinia triticina (setting [2]), under 70% in the assay with Puccinia triticina (setting [3]), over 70% in assay [1] (setting [4]) and over 70% in assay [1] (setting [5]).
For the compound `CCC[C@H]1COC[C@H](NC(=O)c2nccc(OC)c2O)C(=O)O[C@@H](C)[C@@H]1Cc1ccccc1` [compound 126], the pest or weed control at 100 µg/mL (in the assay on Puccinia triticina (setting [2]); in the assay on Puccinia triticina (setting [3]); in assay [1] (setting [4]); in assay [1] (setting [5])) was over 70% throughout.
Turning to `COc1ccnc(C(=O)N[C@H]2COC[C@H](CCC(C)C)[C@@H](Cc3ccccc3)[C@H](C)OC2=O)c1OC(C)=O` [compound 46], the pest or weed control at 121.5 g/ha (in the assay with Puccinia triticina (setting [2]); with Puccinia triticina (setting [3]); in assay [1] (setting [4]); in assay [1] (setting [5])) was over 70% in each case.
`COc1ccnc(C(=O)N[C@H]2COC[C@H](Cc3ccccc3)[C@@H](COCC(C)C)[C@H](C)OC2=O)c1O` [compound 121]: the pest or weed control at 100 µg/mL in the assay with Puccinia triticina (setting [2]) is under 70%; in the assay on Puccinia triticina (setting [3]), under 70%; in assay [1] (setting [4]) it was under 70%; in assay [1] (setting [5]), over 70%.
For the compound `COc1ccnc(C(=O)N[C@H]2COC[C@H](Cc3ccc(Cl)cc3)[C@@H](CC(C)C)[C@H](C)OC2=O)c1O` [compound 145], the pest or weed control at 100 µg/mL (in the assay with Puccinia triticina (setting [2]); in the assay with Puccinia triticina (setting [3]); in assay [1] (setting [4]); in assay [1] (setting [5])) was over 70% throughout.
For `COc1ccnc(C(=O)N[C@H]2COC[C@H](Cc3ccc(C(F)(F)F)cc3)[C@@H](Cc3ccccc3)[C@H](C)OC2=O)c1OCOC(C)=O` [compound 56], the pest or weed control at 121.5 g/ha in the assay with Puccinia triticina (setting [2]) was over 70%; in the assay on Puccinia triticina (setting [3]), under 70%; in assay [1] (setting [4]) it was over 70%; in assay [1] (setting [5]), under 70%.
With `COc1ccnc(C(=O)N[C@H]2COC[C@H](Cc3ccccc3)[C@@H](CCc3ccccc3)[C@H](C)OC2=O)c1OCOC(C)=O` [compound 30], the pest or weed control at 121.5 g/ha (in the assay with Puccinia triticina (setting [2]); with Puccinia triticina (setting [3]); in assay [1] (setting [4]); in assay [1] (setting [5])) was over 70% each time.
Take `COc1ccnc(C(=O)N[C@H]2COC[C@H](Cc3ccccc3)[C@@H](CCC(C)C)[C@H](C)OC2=O)c1OCOC(C)=O` [compound 85]: the pest or weed control at 121.5 g/ha (with Puccinia triticina (setting [2]); in the assay with Puccinia triticina (setting [3]); in assay [1] (setting [4]); in assay [1] (setting [5])) was over 70% in each case.
Turning to `COc1ccnc(C(=O)N[C@H]2COC[C@H](CC3CC3)[C@@H](Cc3ccc(F)cc3)[C@H](C)OC2=O)c1O` [compound 153], the pest or weed control at 100 µg/mL (in the assay with Puccinia triticina (setting [2]); with Puccinia triticina (setting [3]); in assay [1] (setting [4]); in assay [1] (setting [5])) was over 70% throughout.
`CCOCC(=O)OCOc1c(OC)ccnc1C(=O)N[C@H]1COC[C@H](CCC(C)C)[C@@H](Cc2ccccc2)[C@H](C)OC1=O` [compound 45]: the pest or weed control at 121.5 g/ha (in the assay on Puccinia triticina (setting [2]); in the assay with Puccinia triticina (setting [3]); in assay [1] (setting [4]); in assay [1] (setting [5])) was over 70% throughout.
For `COc1ccnc(C(=O)N[C@H]2COC[C@H](Cc3ccccc3)[C@@H](CCC(C)C)[C@H](C)OC2=O)c1OCOC(=O)C(C)C` [compound 82], the pest or weed control at 121.5 g/ha (in the assay with Puccinia triticina (setting [2]); in the assay on Puccinia triticina (setting [3]); in assay [1] (setting [4]); in assay [1] (setting [5])) was under 70% each time.
As to `COc1ccnc(C(=O)N[C@H]2COC[C@H](CC3CC3)[C@@H](c3ccccc3)[C@H](C)OC2=O)c1O` [compound 154], the pest or weed control at 100 µg/mL (with Puccinia triticina (setting [2]); in the assay with Puccinia triticina (setting [3]); in assay [1] (setting [4]); in assay [1] (setting [5])) was over 70% in each case.
`CCOCC(=O)OCOc1c(OC)ccnc1C(=O)N[C@H]1COC[C@H](Cc2ccccc2)[C@@H](CC(C)C)[C@H](C)OC1=O` [compound 21]: the pest or weed control at 121.5 g/ha (in the assay with Puccinia triticina (setting [2]); with Puccinia triticina (setting [3]); in assay [1] (setting [4]); in assay [1] (setting [5])) was over 70% in each case.
